Measured values taken from US9738612B2, “Methylacryloyl benzimidazolone derivative and anti-tumour use thereof” (SHANGHAI NATURE STANDARD R&D AND BIOTECH CO., LTD, priority 2014, dated 2017).

Columns and labels:
[1] = test system: PI3K/Akt/mTOR signaling pathway; assay: Inhibition test to signaling pathway at the cellular level (FIG. 4); assay type: cell-based; conditions: different concentrations, FIG. 4, in words
Method: A549 cells were seeded at a density of 2×10^5 cells/well into 12-well plates, and adhered overnight. Then the medium was discarded and the plates were washed three times with normal saline. After that, fresh serum-free medium was added to starve cells for 24 hours, compounds to be tested were added to work for 1 h, then IGF-I was added to stimulated for 10 min, followed byadding a lysis buffer on ice to lyse for half an hour. The cell lysates were collected and centrifuged at 20000×g at 4° C. for 10min, then the supernatant was collected. Protein was quantified by MicroBCA protein quantification Assay kit, and the protein concentration was normalized. The supernatant was mixed with the 4×SDS sample buffer [200 mM Tris.Cl (pH 6.8), 400 mM DTT, 8% SDS, 0.4% bromophenol blue, 40% glycerol] and boiled for 15 min. After cooling at room temperature, aliquots were loaded on polyacrylamide gel, and electrophoresed in Tris-glycine electrophoretic buffer (25 mM Tris, 250 mM glycine, 0.1% SDS) at 80-120 V for about 2 h. Proteins were transferred from the gel to a nitrocellulose membrane by a semi-dry method. Transferring conditions: transfer buffer (39 mM glycine, 48 mM Tris base, 0.037% SDS, 20% methanol); transfer current 25 mA; transfer time 2 h. After transfer, Ponceau S staining was used to determine the transfer efficiency and the positions of protein bands on the nitrocellulose membranes. […]

p-Akt (S473) = assay: Western blot, p-Akt (S473) in IGF stimulated A549 cells; assay type: cell-based; conditions: compound 1 h, IGF 10 min, FIG. 1, in words
Method: A549 cells were seeded at a density of 2×10^5 cells/well into 12-well plates, and adhered overnight. Then the medium was discarded and the plates were washed three times with normal saline. After that, fresh serum-free medium was added to starve cells for 24 hours, compounds to be tested were added to work for 1 h, then IGF-I was added to stimulated for 10 min, followed byadding a lysis buffer on ice to lyse for half an hour. The cell lysates were collected and centrifuged at 20000×g at 4° C. for 10min, then the supernatant was collected. Protein was quantified by MicroBCA protein quantification Assay kit, and the protein concentration was normalized. The supernatant was mixed with the 4×SDS sample buffer [200 mM Tris.Cl (pH 6.8), 400 mM DTT, 8% SDS, 0.4% bromophenol blue, 40% glycerol] and boiled for 15 min. After cooling at room temperature, aliquots were loaded on polyacrylamide gel, and electrophoresed in Tris-glycine electrophoretic buffer (25 mM Tris, 250 mM glycine, 0.1% SDS) at 80-120 V for about 2 h. Proteins were transferred from the gel to a nitrocellulose membrane by a semi-dry method. Transferring conditions: transfer buffer (39 mM glycine, 48 mM Tris base, 0.037% SDS, 20% methanol); transfer current 25 mA; transfer time 2 h. After transfer, Ponceau S staining was used to determine the transfer efficiency and the positions of protein bands on the nitrocellulose membranes. After labeling the membrane was blocked with a blocking solution containing 5% nonfat-dried milk [5% nonfat-dried milk, 20 mM Tris-HCl (pH 7.2-7.4), 150 mM NaCl, 0.1% (v/v) Tween 20] on a shaker at room temperature for 2 h. To the system were added specific primary antibodies and incubated overnight at 4° C. Then the membrane was washed with PBST solution [20 mM Tris-HCl (pH 7.2-7.4), 150 mM NaCl, 0.1% (v/v) Tween 20] at room temperature three times, 15 min/time. To the system were added Horseradish peroxidase-labeled secondary antibodies and incubated at room temperature on a shaker with gentle shaking for 2 h. After washing with PBST solution three times, the system was exposed, developed and fixed after SuperSignal West Dura Chemiluminescent Substrate (Pierce Inc, Rochford, IL) was used for color. The results were shown in FIG. 1, in which there were 12 lanes the band shade and size of which indicated the corresponding protein concentration levels. […] MK2206 was an Akt phosphorylation inhibitor developed by Merck, and was currently in phase II clinical trial, showing good therapeutic effects in a variety of tumors.

C=C(C)n1c(=O)n(C(C)=O)c2ncc(Br)cc21 [FD162]
Down-regulation of PI3K/Akt/mTOR signaling pathway [1]: down-regulate PI3K/Akt/mTOR signaling pathway in a dose-dependent manner
Effect on Akt phosphorylation level (p-Akt S473 band) (p-Akt (S473)): significantly reduce the Akt phosphorylation level
Effect on Akt phosphorylation level (p-Akt S473 band) (p-Akt (S473); listed as FD3): comparable effects to MK2206
